The record followed here is PMC6677754, “In silico design and optimization of selective membranolytic anticancer peptides” (Scientific Reports, 2019).

Peptide text beside a SMILES is read from it.

What all share (test): NCI-60 screening
What all share (type): cell-based, human

The test system of one assay is MDA-MB-231/ATCC. As to conditions: MDA-MB-231/ATCC (Breast); log GI50; 48 h, sulforhodamine B, 10^-4 to 10^-8 M. As to the method:
(§1) NCI-60 screening procedure
(§2) The NCI-60 screening procedure was performed by the Developmental Therapeutics Program of the National Cancer Institute. The procedure was performed as previously described24 in 96-well microtiter plates. Each peptide was tested in a 5-concentration assay, starting at 10^-4 M and diluting 10-fold to the lowest 10^-8 M concentration. The peptides were incubated for 48 h and the cell concentration was assayed by using the sulforhodamine B assay25 and optical density measurements. The growth inhibition (GI50) value24, measures the growth inhibitory power of the drug agent. The GI50 value is the concentration of the test drug for which the condition in Eq. S1 is met, where T is the optical density of the test well after a 48-h exposure to the peptide, T0 the optical density before applying the peptide drug and C the control optical density of a well where no peptide was applied.

Another assay has as its system ACHN. Particulars: ACHN (Renal); log GI50; 48 h, sulforhodamine B, 10^-4 to 10^-8 M. As to the method: as §1, §2
A further assay deals with HT29. Particulars: HT29 (Colon); log GI50; 48 h, sulforhodamine B, 10^-4 to 10^-8 M. As to the method: as §1, §2
A further assay relates to NCI-H460. As to conditions: NCI-H460 (Lung); log GI50; 48 h, sulforhodamine B, 10^-4 to 10^-8 M. As to the method:
as §1, §2

A further assay deals with SK-MEL-28. As to conditions: SK-MEL-28 (Melanoma); log GI50; 48 h, sulforhodamine B, 10^-4 to 10^-8 M. As to the method:
as §1, §2

The test system of a further assay is RPMI-8226. Particulars: RPMI-8226 (Leukemia); log GI50; 48 h, sulforhodamine B, 10^-4 to 10^-8 M. As to the method: as §1, §2
The next assay relates to KM12. As to conditions: KM12 (Colon); log GI50; 48 h, sulforhodamine B, 10^-4 to 10^-8 M. As to the method:
as §1, §2

The next assay has as its system K-562. As to conditions: K-562 (Leukemia); log GI50; 48 h, sulforhodamine B, 10^-4 to 10^-8 M. As to the method:
as §1, §2

A further assay relates to MDA-MB-435. Particulars: MDA-MB-435 (Melanoma); log GI50; 48 h, sulforhodamine B, 10^-4 to 10^-8 M. As to the method:
as §1, §2

The test system of another assay is SK-OV-3. Particulars: SK-OV-3 (Ovarian); log GI50; 48 h, sulforhodamine B, 10^-4 to 10^-8 M. As to the method:
as §1, §2

Another assay has as its system SW-620. Particulars: SW-620 (Colon); log GI50; 48 h, sulforhodamine B, 10^-4 to 10^-8 M. As to the method: as §1, §2
The test system of the next assay is CCRF-CEM. As to conditions: CCRF-CEM (Leukemia); log GI50; 48 h, sulforhodamine B, 10^-4 to 10^-8 M. As to the method: as §1, §2
A further assay concerns COLO 205. Particulars: COLO 205 (Colon); log GI50; 48 h, sulforhodamine B, 10^-4 to 10^-8 M. As to the method:
as §1, §2

The next assay has as its system SK-MEL-2. Particulars: SK-MEL-2 (Melanoma); log GI50; 48 h, sulforhodamine B, 10^-4 to 10^-8 M. As to the method:
as §1, §2

A further assay relates to SF-295. As to conditions: SF-295 (CNS); log GI50; 48 h, sulforhodamine B, 10^-4 to 10^-8 M. As to the method:
as §1, §2

The subject of the next assay is HOP-92. Particulars: HOP-92 (Lung); log GI50; 48 h, sulforhodamine B, 10^-4 to 10^-8 M. As to the method: as §1, §2
A further assay relates to NCI/ADR-RES. Particulars: NCI/ADR-RES (Ovarian); log GI50; 48 h, sulforhodamine B, 10^-4 to 10^-8 M. As to the method:
as §1, §2

Regarding `CC[C@H](C)[C@H](NC(=O)[C@H](CCCNC(=N)N)NC(=O)[C@H](Cc1c[nH]c2ccccc12)NC(=O)[C@@H](NC(=O)[C@H](CCCCN)NC(=O)[C@H](CCCCN)NC(=O)[C@@H](NC(=O)[C@@H](NC(=O)[C@@H](NC(=O)[C@H](CCCCN)NC(=O)[C@H](Cc1ccccc1)NC(=O)[C@H](CCCCN)NC(=O)[C@H](CCCCN)NC(=O)[C@H](Cc1ccccc1)NC(=O)[C@@H](NC(=O)[C@@H](N)CCCCN)[C@@H](C)CC)[C@@H](C)O)[C@@H](C)CC)[C@@H](C)CC)C(C)C)C(=O)N[C@@H](Cc1ccccc1)C(=O)NCC(=O)N[C@@H](CCCNC(=N)N)C(=O)N[C@@H](Cc1ccccc1)C(N)=O` [AmphiArc2] (H-KIFKKFKTIIKKVWRIFGRF-NH2), the “Log GI (M)” value in the assay on MDA-MB-231/ATCC is on record as -5.72 M; in the assay on ACHN, -5.71 M; in the assay with HT29 it was -5.53 M; in the assay with NCI-H460, -5.62 M; in the assay on SK-MEL-28, -5.66 M; with RPMI-8226, -5.51 M. Moreover, the “Log GI (M)” value with KM12 is recorded as -5.63 M; with K-562, -5.55 M; in the assay on MDA-MB-435 it was -5.63 M; with SK-OV-3 it was -5.50 M; with SW-620 it was -5.59 M; with CCRF-CEM, -5.60 M. The “Log GI (M)” value in the assay on COLO 205 is recorded as -5.58 M; in the assay with SK-MEL-2, -5.58 M; in the assay with SF-295, -5.69 M; with HOP-92 it was -5.70 M; in the assay on NCI/ADR-RES, -5.53 M.

`CC[C@H](C)[C@H](NC(=O)[C@H](CCCCN)NC(=O)[C@H](CCCCN)NC(=O)[C@@H](NC(=O)[C@@H](NC(=O)[C@@H](N)Cc1c[nH]cn1)[C@@H](C)CC)[C@@H](C)CC)C(=O)N[C@@H](CCCNC(=N)N)C(=O)N[C@H](C(=O)N[C@@H](Cc1c[nH]c2ccccc12)C(=O)N[C@@H](Cc1ccc(O)cc1)C(=O)N[C@@H](CCCNC(=N)N)C(=O)N[C@@H](CCCCN)C(=O)N[C@@H](C)C(=O)N[C@@H](Cc1c[nH]c2ccccc12)C(=O)N[C@@H](Cc1c[nH]cn1)C(=O)N[C@H](C(=O)N[C@@H](CC(C)C)C(=O)NCC(=O)N[C@@H](CCCCN)C(=O)N[C@H](C(N)=O)C(C)C)C(C)C)[C@@H](C)O` [Off2] (H-HIIKKIRTWYRKAWHVLGKV-NH2): the “Log GI (M)” value in the assay on MDA-MB-231/ATCC is given as -5.19 M; with ACHN, -4.88 M; in the assay on HT29, -4.83 M; in the assay with NCI-H460 it was -5.48 M; in the assay with SK-MEL-28, -5.58 M; in the assay with RPMI-8226, -5.06 M. Moreover, the “Log GI (M)” value is given as -5.60 M in the assay with KM12; -5.18 M in the assay with K-562; -5.29 M in the assay with MDA-MB-435; -5.20 M in the assay with SK-OV-3; -5.02 M with SW-620; -5.43 M in the assay on CCRF-CEM. Besides, the “Log GI (M)” value is given as -5.68 M in the assay on COLO 205; -5.28 M in the assay with SK-MEL-2; -5.32 M in the assay with SF-295; -5.68 M in the assay with HOP-92; -5.23 M with NCI/ADR-RES.
